The target in assay [1] is T1, I-A^g7 (Mus musculus, UniProt P04228+Q31135).
T1 sequence (P04228 24-256): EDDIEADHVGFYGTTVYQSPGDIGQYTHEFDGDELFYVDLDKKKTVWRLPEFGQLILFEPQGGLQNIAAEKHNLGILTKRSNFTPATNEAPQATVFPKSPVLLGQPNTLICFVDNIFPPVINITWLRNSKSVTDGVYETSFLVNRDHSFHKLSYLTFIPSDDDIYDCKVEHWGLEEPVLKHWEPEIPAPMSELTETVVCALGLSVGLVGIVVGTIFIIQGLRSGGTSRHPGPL
T1 sequence (Q31135 1-263): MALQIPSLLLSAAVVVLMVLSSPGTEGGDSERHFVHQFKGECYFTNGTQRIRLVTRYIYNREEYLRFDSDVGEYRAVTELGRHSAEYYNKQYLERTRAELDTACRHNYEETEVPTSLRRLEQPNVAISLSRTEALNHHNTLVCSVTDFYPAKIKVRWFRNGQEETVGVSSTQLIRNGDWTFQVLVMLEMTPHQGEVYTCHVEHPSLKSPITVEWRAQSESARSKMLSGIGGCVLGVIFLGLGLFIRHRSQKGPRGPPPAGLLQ
It counts as binding.

The target of assay [2] is I-A^k (Mus musculus, UniProt P01910+P06343). Put plainly: Peptide-binding assay on soluble I-A^k.
In assay [3] the test system is ACP T-cell hybridomas. Kind of assay: T-cell hybridoma reactivity with nonamers spanning PI-1. It counts as cell-based, mouse. The following applies: eight ACP T-cell hybridomas tested; all negative.

Peptide text beside a SMILES is read from it.

For orientation: IC50 means the point on the concentration scale where inhibition reaches its midpoint. A low value points to greater potency in that assay.

Consider `CC(C)[C@H](NC(=O)[C@H](CCCCN)NC(=O)[C@H](CCCCN)NC(=O)CN)C(=O)N[C@@H](C)C(=O)N[C@H](C(=O)N[C@H](C(=O)N[C@H](C(=O)N[C@@H](Cc1c[nH]cn1)C(=O)N[C@@H](C)C(=O)NCC(=O)N[C@@H](Cc1ccc(O)cc1)C(=O)NCC(=O)O)C(C)C)[C@@H](C)O)[C@@H](C)O` [MIME, reference compound] (H-GKKVATTVHAGYG-OH), for which 1 µM corresponded to half-maximal inhibition in assay [1] (IC50). As for `CC(C)C[C@H](NC(=O)[C@H](C)NC(=O)[C@H](CC(C)C)NC(=O)[C@@H](NC(=O)[C@H](CCC(N)=O)NC(=O)[C@H](CC(C)C)NC(=O)[C@H](CC(=O)O)NC(=O)CNC(=O)[C@@H]1CCCN1C(=O)[C@@H](N)CO)[C@@H](C)O)C(=O)N[C@@H](CCC(=O)O)C(=O)N[C@H](C(=O)N[C@@H](C)C(=O)N[C@@H](CCCNC(=N)N)C(=O)N[C@@H](CCC(N)=O)C(=O)N[C@@H](CCCCN)C(=O)N[C@@H](CCCNC(=N)N)C(=O)NCC(=O)O)C(C)C` [PI-1(47–64)] (H-SPGDLQTLALEVARQKRG-OH), the IC50 worked out at 4.8 µM in assay [2] and 98.9 µM in assay [1]. Compound `CC(C)C[C@H](NC(=O)[C@H](C)NC(=O)[C@H](CC(C)C)NC(=O)[C@@H](NC(=O)[C@H](CCC(N)=O)NC(=O)[C@H](CC(C)C)NC(=O)[C@H](CC(=O)O)NC(=O)CN)[C@@H](C)O)C(=O)N[C@@H](CCC(=O)O)C(=O)N[C@H](C(=O)N[C@@H](C)C(=O)N[C@@H](CCCNC(=N)N)C(=O)N[C@@H](CCC(N)=O)C(=O)O)C(C)C` [PI-1(49–61)] (H-GDLQTLALEVARQ-OH) gave an IC50 in assay [1] of 20 µM. For the compound `CC(C)C[C@H](NC(=O)[C@H](C)NC(=O)[C@H](CC(C)C)NC(=O)[C@@H](NC(=O)[C@H](CCC(N)=O)NC(=O)[C@H](CC(C)C)NC(=O)[C@H](CC(=O)O)NC(=O)CNC(=O)[C@H](C)NC(=O)CN)[C@@H](C)O)C(=O)N[C@@H](CCC(=O)O)C(=O)N[C@H](C(=O)N[C@@H](C)C(=O)N[C@@H](CCC(N)=O)C(=O)N[C@@H](CCC(N)=O)C(=O)N[C@@H](CCCCN)C(=O)N[C@@H](CCCNC(=N)N)C(=O)NCC(=O)O)C(C)C` [PI-2(49–66)] (H-GAGDLQTLALEVAQQKRG-OH), the IC50 in assay [2] amounted to 2.1 µM; in assay [1], 136 µM. Consider LQTLALEVA, for which, in assay [3], the “T-cells reactive with nonamer (of T-cells tested)” value is reported as 0 of 8. On to QTLALEVAR, for which the “T-cells reactive with nonamer (of T-cells tested)” value in assay [3] is listed as 0 of 8. On the same count and under the same terms, in the case of TLALEVARQ it was 0 of 8.

(Values after paper PMC2453633 (Diabetes, 2008).)
